Test results from the NIST ThermoML archive (doi:10.1021/je049671t).

Assay: xn = mol fraction of the nth substance listed
Conditions: Liquid, Vibrating tube method

CC(C)C [2-methylpropane] + CCC
Conditions | mass density [kg/m3]
300 K, 4958.9 kPa, x2 = 0.499 | 533.34
300 K, 4994.5 kPa, x2 = 0.75 | 518.46
300 K, 5016.4 kPa, x2 = 0.25 | 547.38
300 K, 5458.6 kPa, x2 = 0.499 | 534.46
300 K, 5458.9 kPa, x2 = 0.75 | 519.57
300 K, 5511.8 kPa, x2 = 0.25 | 548.38
300 K, 5960.9 kPa, x2 = 0.75 | 520.74
300 K, 5975.7 kPa, x2 = 0.499 | 535.56
300 K, 6025.1 kPa, x2 = 0.25 | 549.47
300 K, 6473 kPa, x2 = 0.75 | 521.92
300 K, 6516 kPa, x2 = 0.25 | 550.41
300 K, 6517.3 kPa, x2 = 0.499 | 536.72
300 K, 6954.6 kPa, x2 = 0.75 | 522.99
300 K, 6957 kPa, x2 = 0.25 | 551.23
300 K, 6984.7 kPa, x2 = 0.499 | 537.69
320 K, 1020.5 kPa, x2 = 0.25 | 509.69
320 K, 1325.3 kPa, x2 = 0.75 | 475.52
320 K, 1461.2 kPa, x2 = 0.499 | 494.61
320 K, 1500 kPa, x2 = 0.25 | 511.28
320 K, 1505.3 kPa, x2 = 0.75 | 476.31
320 K, 2021.1 kPa, x2 = 0.75 | 478.51
320 K, 2023.3 kPa, x2 = 0.25 | 512.94
320 K, 2041.5 kPa, x2 = 0.499 | 496.75
320 K, 2488.7 kPa, x2 = 0.499 | 498.31
320 K, 2517.7 kPa, x2 = 0.75 | 480.54
320 K, 2522.2 kPa, x2 = 0.25 | 514.49
320 K, 3007.6 kPa, x2 = 0.25 | 515.95
320 K, 3023.9 kPa, x2 = 0.499 | 500.12
320 K, 3025.6 kPa, x2 = 0.75 | 482.53
320 K, 3506.4 kPa, x2 = 0.75 | 484.35
320 K, 3508.1 kPa, x2 = 0.25 | 517.4
320 K, 3550 kPa, x2 = 0.499 | 501.84
320 K, 3994.2 kPa, x2 = 0.75 | 486.12
320 K, 4022.9 kPa, x2 = 0.25 | 518.87
320 K, 4037.4 kPa, x2 = 0.499 | 503.38
320 K, 4507.7 kPa, x2 = 0.75 | 487.92
320 K, 4522.1 kPa, x2 = 0.25 | 520.26
320 K, 4530.4 kPa, x2 = 0.499 | 504.9
320 K, 4954.2 kPa, x2 = 0.499 | 506.17
320 K, 4968 kPa, x2 = 0.75 | 489.5
320 K, 4990.1 kPa, x2 = 0.25 | 521.53
320 K, 5517.3 kPa, x2 = 0.25 | 522.93
320 K, 5527.2 kPa, x2 = 0.75 | 491.33
320 K, 5545.8 kPa, x2 = 0.499 | 507.9
320 K, 5997.3 kPa, x2 = 0.499 | 509.24
320 K, 6001.8 kPa, x2 = 0.25 | 524.19
320 K, 6003.6 kPa, x2 = 0.75 | 492.85
320 K, 6479.8 kPa, x2 = 0.25 | 525.39
320 K, 6495 kPa, x2 = 0.75 | 494.38
320 K, 6524.9 kPa, x2 = 0.499 | 510.74
320 K, 6930.3 kPa, x2 = 0.499 | 511.85
320 K, 6964.1 kPa, x2 = 0.25 | 526.6
320 K, 7044.7 kPa, x2 = 0.75 | 496.03
340 K, 1514.2 kPa, x2 = 0.25 | 479.11
340 K, 2002.6 kPa, x2 = 0.499 | 459.37
340 K, 2028 kPa, x2 = 0.25 | 481.6
340 K, 2456 kPa, x2 = 0.499 | 461.99
340 K, 2489.8 kPa, x2 = 0.75 | 441.74
340 K, 2523.8 kPa, x2 = 0.25 | 483.92
340 K, 2981.6 kPa, x2 = 0.499 | 464.85
340 K, 3027.2 kPa, x2 = 0.25 | 486.13
340 K, 3027.4 kPa, x2 = 0.75 | 445.39
340 K, 3485.7 kPa, x2 = 0.499 | 467.47
340 K, 3510.1 kPa, x2 = 0.75 | 448.46
340 K, 3532.9 kPa, x2 = 0.25 | 488.26
340 K, 3969 kPa, x2 = 0.75 | 451.17
340 K, 4012.5 kPa, x2 = 0.499 | 470.04
340 K, 4015.7 kPa, x2 = 0.25 | 490.21
340 K, 4498.6 kPa, x2 = 0.75 | 454.09
340 K, 4503 kPa, x2 = 0.25 | 492.08
340 K, 4508.4 kPa, x2 = 0.499 | 472.34
340 K, 4963.1 kPa, x2 = 0.75 | 456.51
340 K, 4964.9 kPa, x2 = 0.25 | 493.81
340 K, 4990.6 kPa, x2 = 0.499 | 474.5
340 K, 5450.5 kPa, x2 = 0.499 | 476.5
340 K, 5511.1 kPa, x2 = 0.75 | 459.22
340 K, 5522.3 kPa, x2 = 0.25 | 495.84
340 K, 5960.4 kPa, x2 = 0.75 | 461.33
340 K, 5982 kPa, x2 = 0.499 | 478.68
340 K, 6022.3 kPa, x2 = 0.25 | 497.59
340 K, 6506.1 kPa, x2 = 0.75 | 463.79
340 K, 6513 kPa, x2 = 0.499 | 480.75
340 K, 6527.5 kPa, x2 = 0.25 | 499.31
340 K, 6963 kPa, x2 = 0.25 | 500.75
340 K, 7045.5 kPa, x2 = 0.499 | 482.76
340 K, 7081.1 kPa, x2 = 0.75 | 466.25
360 K, 2023.3 kPa, x2 = 0.25 | 441.34
360 K, 2495.4 kPa, x2 = 0.499 | 418.03
360 K, 2532.9 kPa, x2 = 0.25 | 445.56
360 K, 2996.3 kPa, x2 = 0.499 | 423.54
360 K, 3022.3 kPa, x2 = 0.25 | 449.26
360 K, 3496.3 kPa, x2 = 0.499 | 428.34
360 K, 3518.2 kPa, x2 = 0.75 | 399.53
360 K, 3519.8 kPa, x2 = 0.25 | 452.71
360 K, 3960 kPa, x2 = 0.75 | 405.21
360 K, 3971.4 kPa, x2 = 0.75 | 405.35
360 K, 3988.8 kPa, x2 = 0.499 | 432.58
360 K, 4022.3 kPa, x2 = 0.25 | 455.95
360 K, 4484.8 kPa, x2 = 0.75 | 411.08
360 K, 4488.6 kPa, x2 = 0.499 | 436.48
360 K, 4520.2 kPa, x2 = 0.25 | 458.95
360 K, 4923.7 kPa, x2 = 0.75 | 415.42
360 K, 4983.9 kPa, x2 = 0.25 | 461.58
360 K, 5000.3 kPa, x2 = 0.499 | 440.17
360 K, 5436.6 kPa, x2 = 0.499 | 443.06
360 K, 5456.3 kPa, x2 = 0.75 | 420.47
360 K, 5515.2 kPa, x2 = 0.25 | 464.45
360 K, 5932 kPa, x2 = 0.75 | 424.33
360 K, 5982.9 kPa, x2 = 0.25 | 466.86
360 K, 5992.3 kPa, x2 = 0.499 | 446.54
360 K, 6444.6 kPa, x2 = 0.25 | 469.09
360 K, 6487.4 kPa, x2 = 0.499 | 449.41
360 K, 6509.8 kPa, x2 = 0.75 | 428.41
360 K, 6932.1 kPa, x2 = 0.75 | 431.05
360 K, 6956.4 kPa, x2 = 0.25 | 471.48
360 K, 6977 kPa, x2 = 0.499 | 452.14
380 K, 2977.2 kPa, x2 = 0.25 | 394.6
380 K, 3495.5 kPa, x2 = 0.25 | 403.43
380 K, 3540.7 kPa, x2 = 0.499 | 358.66
380 K, 3969.5 kPa, x2 = 0.25 | 409.99
380 K, 4047.9 kPa, x2 = 0.499 | 373.76
380 K, 4453.9 kPa, x2 = 0.25 | 415.7
380 K, 4501.9 kPa, x2 = 0.499 | 383.09
380 K, 5016 kPa, x2 = 0.499 | 391.43
380 K, 5019.6 kPa, x2 = 0.25 | 421.52
380 K, 5488.5 kPa, x2 = 0.25 | 425.84
380 K, 5506.7 kPa, x2 = 0.499 | 398.06
380 K, 5943.1 kPa, x2 = 0.499 | 403.16
380 K, 5972.1 kPa, x2 = 0.25 | 429.89
380 K, 6422.5 kPa, x2 = 0.499 | 408.17
380 K, 6471.8 kPa, x2 = 0.25 | 433.74
380 K, 6885.8 kPa, x2 = 0.499 | 412.58
380 K, 7060.8 kPa, x2 = 0.25 | 437.93

mass density [kg/m3]
Conditions | 300 K | 320 K | 340 K | 360 K | 380 K
x2 = 0.25 | 537.31 | 509.12 | 478.17 | 440.78 | 390.71
x2 = 0.499 | 522.96 | 491.75 | 457.03 | 416.83 | 346.9
x2 = 0.75 | 507.33 | 475.51 | 436.07 | 388.35 | –
